Data reported in patent US20190031618A1, “BENZIMIDAZOLE DERIVATIVES USEFUL AS CB-1 INVERSE AGONISTS” (Janssen Pharmaceutica NV, priority 2015, published 2019).
Read-outs that look alike come from different tables or passages of the source.

How the values were obtained:
Format in all cases: in vivo
[1] = tested on: DIO mice; assay: Chronic DIO Mouse: food intake, body weight, plasma insulin; conditions: chronic DIO mouse, (Std Err)
Protocol: Male 14-20-week old diet-induced obese mice are ordered from Taconic. Mice were started on a 60% fat diet (D12492, Research Diets, New Brunswick, N.J.) at 6 weeks of age. Mice are single-housed.
(§1) DIO mice received vehicle, test compound (@ 1, 3, 10, and 30 mg/kg) daily for 26 days. At the end of the experiment, the mice were euthanized and blood and tissues were collected.
Body weight and food weight (food intake) were monitored daily for days 1-5 and twice weekly thereafter.
(§2) Blood glucose was measured from the tail vein with a Lifescan glucometer. Plasma insulin was measured with an ELISA or HTRF kit (Cisbio). Plasma parameters were measured with an Olympus clinical chemistry analyzer.

[2] = tested on: DIO mice; assay: Chronic DIO Mouse: insulin tolerance test; conditions: for Insulin Tolerance Test Blood Glucose AUC (Std Err): day 21
Protocol: as §1
An insulin tolerance test (0.7 U/kg Humulin, ip) was performed on day 21 after a 4 hour food removal. Blood glucose was measured at 0, 15, 30, 60 and 120 minutes after insulin. After an overnight fast, an oral glucose tolerance test (2 g/kg glucose) was performed on day 23. Blood glucose was measured at 0, 30, 60 and 120 minutes after glucose challenge.
as §2

[3] = Chronic DIO Mouse: plasma and brain concentrations; conditions: oral, DIO mice, 2 Hours Post Dose
Protocol: as §1

Question: With `O=C(O)c1cccc(CN2CCC(n3c(C4CC4)nc4ccc(C(c5ccc(Cl)cc5)c5ccc(Cl)cc5)cc43)CC2)c1` [Example 148] as the compound, how does the “Mean Daily Food Intake” value ([1]; 1 mg/kg daily, Day 2) read?
Answer: 2.3 (0.1) Grams

Question: And the “Mean Daily Food Intake” value ([1]; 1 mg/kg daily, Day 3)?
Answer: 2.3 (0.1) Grams

Question: What about the “Mean Daily Food Intake” value ([1]; 1 mg/kg daily, Day 4) of the same compound?
Answer: 2.2 (0.1) Grams

Question: What about the “Mean Daily Food Intake” value ([1]; 1 mg/kg daily, Day 5) of the same compound?
Answer: 2.4 (0.1) Grams

Question: And the “Mean Daily Food Intake” value ([1]; 1 mg/kg daily, Day 8)?
Answer: 2.1 (0.1) Grams

Question: What about the “Mean Daily Food Intake” value ([1]; 1 mg/kg daily, Day 11) of the same compound?
Answer: 2.3 (0.1) Grams

Question: What about the “Mean Daily Food Intake” value ([1]; 1 mg/kg daily, Day 15) of the same compound?
Answer: 2.4 (0.1) Grams

Question: And the “Mean Daily Food Intake” value ([1]; 1 mg/kg daily, Day 18)?
Answer: 1.6 (0.3) Grams

Question: And the “Mean Daily Food Intake” value ([1]; 1 mg/kg daily, Day 24)?
Answer: 2.1 (0.2) Grams

Question: And the “Mean Daily Food Intake” value ([1]; 3 mg/kg daily, Day 2)?
Answer: 2.0 (0.2) Grams

Question: And the “Mean Daily Food Intake” value ([1]; 3 mg/kg daily, Day 3)?
Answer: 2.0 (0.1) Grams

Question: And the “Mean Daily Food Intake” value ([1]; 3 mg/kg daily, Day 4)?
Answer: 1.9 (0.2) Grams

Question: What about the “Mean Daily Food Intake” value ([1]; 3 mg/kg daily, Day 5) of the same compound?
Answer: 1.8 (0.2) Grams

Question: And the “Mean Daily Food Intake” value ([1]; 3 mg/kg daily, Day 8)?
Answer: 1.7 (0.1) Grams

Question: And the “Mean Daily Food Intake” value ([1]; 3 mg/kg daily, Day 11)?
Answer: 1.8 (0.1) Grams

Question: And the “Mean Daily Food Intake” value ([1]; 3 mg/kg daily, Day 15)?
Answer: 2.5 (0.1) Grams

Question: What about the “Mean Daily Food Intake” value ([1]; 3 mg/kg daily, Day 18) of the same compound?
Answer: 2.2 (0.1) Grams

Question: What about the “Mean Daily Food Intake” value ([1]; 3 mg/kg daily, Day 24) of the same compound?
Answer: 2.2 (0.1) Grams

Question: What about the “Mean Daily Food Intake” value ([1]; 10 mg/kg daily, Day 2) of the same compound?
Answer: 0.5 (0.1) Grams

Question: And the “Mean Daily Food Intake” value ([1]; 10 mg/kg daily, Day 3)?
Answer: 0.9 (0.1) Grams

Question: And the “Mean Daily Food Intake” value ([1]; 10 mg/kg daily, Day 4)?
Answer: 1.7 (0.2) Grams

Question: And the “Mean Daily Food Intake” value ([1]; 10 mg/kg daily, Day 5)?
Answer: 1.8 (0.2) Grams

Question: And the “Mean Daily Food Intake” value ([1]; 10 mg/kg daily, Day 8)?
Answer: 1.7 (0.1) Grams

Question: What about the “Mean Daily Food Intake” value ([1]; 10 mg/kg daily, Day 11) of the same compound?
Answer: 2.0 (0.1) Grams

Question: What about the “Mean Daily Food Intake” value ([1]; 10 mg/kg daily, Day 15) of the same compound?
Answer: 2.3 (0.1) Grams

Question: And the “Mean Daily Food Intake” value ([1]; 10 mg/kg daily, Day 18)?
Answer: 2.3 (0.1) Grams

Question: What about the “Mean Daily Food Intake” value ([1]; 10 mg/kg daily, Day 24) of the same compound?
Answer: 2.2 (0.2) Grams

Question: And the “Mean Daily Food Intake” value ([1]; 30 mg/kg daily, Day 2)?
Answer: 0.1 (0.1) Grams

Question: What about the “Mean Daily Food Intake” value ([1]; 30 mg/kg daily, Day 3) of the same compound?
Answer: 0.5 (0.1) Grams

Question: What about the “Mean Daily Food Intake” value ([1]; 30 mg/kg daily, Day 4) of the same compound?
Answer: 0.7 (0.1) Grams

Question: What about the “Mean Daily Food Intake” value ([1]; 30 mg/kg daily, Day 5) of the same compound?
Answer: 1.0 (0.2) Grams

Question: What about the “Mean Daily Food Intake” value ([1]; 30 mg/kg daily, Day 8) of the same compound?
Answer: 1.3 (0.2) Grams

Question: And the “Mean Daily Food Intake” value ([1]; 30 mg/kg daily, Day 11)?
Answer: 1.7 (0.2) Grams

Question: And the “Mean Daily Food Intake” value ([1]; 30 mg/kg daily, Day 15)?
Answer: 2.3 (0.1) Grams

Question: And the “Mean Daily Food Intake” value ([1]; 30 mg/kg daily, Day 18)?
Answer: 1.8 (0.2) Grams

Question: And the “Mean Daily Food Intake” value ([1]; 30 mg/kg daily, Day 24)?
Answer: 2.4 (0.1) Grams

Question: And the “Insulin Tolerance Test Blood Glucose AUC (Std Err)” value ([2]; 1 mg/kg daily)?
Answer: 19606.5 mg·min/dL

Question: What about the “Insulin Tolerance Test Mean Blood Glucose (Std Err)” value ([2]; 1 mg/kg daily, day 21, 0 min after insulin) of the same compound?
Answer: 194.8 mg/dL

Question: What about the “Insulin Tolerance Test Mean Blood Glucose (Std Err)” value ([2]; 1 mg/kg daily, day 21, 15 min after insulin) of the same compound?
Answer: 193.3 mg/dL

Question: What about the “Insulin Tolerance Test Mean Blood Glucose (Std Err)” value ([2]; 1 mg/kg daily, day 21, 30 min after insulin) of the same compound?
Answer: 155 mg/dL

Question: And the “Insulin Tolerance Test Mean Blood Glucose (Std Err)” value ([2]; 1 mg/kg daily, day 21, 60 min after insulin)?
Answer: 161.3 mg/dL

Question: And the “Insulin Tolerance Test Mean Blood Glucose (Std Err)” value ([2]; 1 mg/kg daily, day 21, 120 min after insulin)?
Answer: 150 mg/dL

Question: What about the “Insulin Tolerance Test Blood Glucose AUC (Std Err)” value ([2]; 3 mg/kg daily) of the same compound?
Answer: 17812.5 (1054.85) mg/dL * min

Question: What about the “Insulin Tolerance Test Mean Blood Glucose (Std Err)” value ([2]; 3 mg/kg daily, day 21, 0 min after insulin) of the same compound?
Answer: 185.9 (6.57) mg/dL

Question: What about the “Insulin Tolerance Test Mean Blood Glucose (Std Err)” value ([2]; 3 mg/kg daily, day 21, 15 min after insulin) of the same compound?
Answer: 160.9 (7.24) mg/dL

Question: What about the “Insulin Tolerance Test Mean Blood Glucose (Std Err)” value ([2]; 3 mg/kg daily, day 21, 30 min after insulin) of the same compound?
Answer: 138.9 (9.10) mg/dL

Question: What about the “Insulin Tolerance Test Mean Blood Glucose (Std Err)” value ([2]; 3 mg/kg daily, day 21, 60 min after insulin) of the same compound?
Answer: 150.9 (11.66) mg/dL

Question: What about the “Insulin Tolerance Test Mean Blood Glucose (Std Err)” value ([2]; 3 mg/kg daily, day 21, 120 min after insulin) of the same compound?
Answer: 136.3 (9.51) mg/dL

Question: What about the “Insulin Tolerance Test Blood Glucose AUC (Std Err)” value ([2]; 10 mg/kg daily) of the same compound?
Answer: 17930.25 (556.44) mg/dL * min

Question: And the “Insulin Tolerance Test Mean Blood Glucose (Std Err)” value ([2]; 10 mg/kg daily, day 21, 0 min after insulin)?
Answer: 168.8 (7.13) mg/dL

Question: What about the “Insulin Tolerance Test Mean Blood Glucose (Std Err)” value ([2]; 10 mg/kg daily, day 21, 15 min after insulin) of the same compound?
Answer: 172.6 (9.66) mg/dL

Question: And the “Insulin Tolerance Test Mean Blood Glucose (Std Err)” value ([2]; 10 mg/kg daily, day 21, 30 min after insulin)?
Answer: 139.1 (7.03) mg/dL

Question: And the “Insulin Tolerance Test Mean Blood Glucose (Std Err)” value ([2]; 10 mg/kg daily, day 21, 60 min after insulin)?
Answer: 146.7 (5.80) mg/dL

Question: What about the “Insulin Tolerance Test Mean Blood Glucose (Std Err)” value ([2]; 10 mg/kg daily, day 21, 120 min after insulin) of the same compound?
Answer: 144.8 (5.86) mg/dL

Question: And the “Insulin Tolerance Test Blood Glucose AUC (Std Err)” value ([2]; 30 mg/kg daily)?
Answer: 14575.5 mg·min/dL

Question: What about the “Insulin Tolerance Test Mean Blood Glucose (Std Err)” value ([2]; 30 mg/kg daily, day 21, 0 min after insulin) of the same compound?
Answer: 143 mg/dL

Question: And the “Insulin Tolerance Test Mean Blood Glucose (Std Err)” value ([2]; 30 mg/kg daily, day 21, 15 min after insulin)?
Answer: 147.6 mg/dL

Question: And the “Insulin Tolerance Test Mean Blood Glucose (Std Err)” value ([2]; 30 mg/kg daily, day 21, 30 min after insulin)?
Answer: 119.8 mg/dL

Question: What about the “Insulin Tolerance Test Mean Blood Glucose (Std Err)” value ([2]; 30 mg/kg daily, day 21, 60 min after insulin) of the same compound?
Answer: 121.3 mg/dL

Question: What about the “Insulin Tolerance Test Mean Blood Glucose (Std Err)” value ([2]; 30 mg/kg daily, day 21, 120 min after insulin) of the same compound?
Answer: 104.5 mg/dL

Question: What about the concentration at 2 h ([3]; brain, 1 mg/kg daily, Day 25, read-out: Brain Concentration (Std Dev)) of the same compound?
Answer: 18.2 ng/g

Question: And the concentration at 2 h ([3]; brain, 3 mg/kg daily, Day 25, read-out: Brain Concentration (Std Dev))?
Answer: 29.9 ng/g

Question: What about the concentration at 2 h ([3]; brain, 10 mg/kg daily, Day 25, read-out: Brain Concentration (Std Dev)) of the same compound?
Answer: 42 ng/g

Question: And the concentration at 2 h ([3]; brain, 30 mg/kg daily, Day 25, read-out: Brain Concentration (Std Dev))?
Answer: 73.5 ng/g

Question: What about the concentration at 2 h ([3]; plasma, 1 mg/kg daily, Day 25, read-out: Plasma Concentration (Std Dev)) of the same compound?
Answer: 288 ng/mL

Question: And the concentration at 2 h ([3]; plasma, 3 mg/kg daily, Day 25, read-out: Plasma Concentration (Std Dev))?
Answer: 1350 ng/mL

Question: And the concentration at 2 h ([3]; plasma, 10 mg/kg daily, Day 25, read-out: Plasma Concentration (Std Dev))?
Answer: 3430 ng/mL

Question: And the concentration at 2 h ([3]; plasma, 30 mg/kg daily, Day 25, read-out: Plasma Concentration (Std Dev))?
Answer: 15200 ng/mL
